Data set [1] can be described thus: Competitive slurrying experiments (solid form by XRPD after one week). The data set is classed as physicochemical. On the procedure: 10 mg (+/−1 mg) each of the Form I, Form II, Form III, 1,2-dimethoxtethane solvate and the hydrate of (S)-3-(3-(1-methyl-2-oxo-5-(pyrazolo[1,5-a]pyridine-3-yl)-1H-imidazo[4,5-b]pyridine-3(2H)-yl)piperidin-1-yl)-3-oxopropanenitrile was added to each of twelve vials. The solvent systems used had been pre-saturated with (S)-3-(3-(1-methyl-2-oxo-5-(pyrazolo[1,5-a]pyridine-3-yl)-1H-imidazo[4,5-b]pyridine-3(2H)-yl)piperidin-1-yl)-3-oxopropanenitrile by shaking a slurry of Form I at the relevant temperature for 16 hours and then passing through a 1 μm glass filter.
The resulting slurries were agitated at the temperature shown for a period of one week. The solids present were then isolated by filtration, air dried and characterised by XRPD.

Data set [2] is described as follows: Solubility of the compound in water (remark in the slurrying results). The format is physicochemical.

Regarding `Cn1c(=O)n([C@H]2CCCN(C(=O)CC#N)C2)c2nc(-c3cnn4ccccc34)ccc21` [Compound (I), (S)-3-(3-(1-methyl-2-oxo-5-(pyrazolo[1,5-a]pyridine-3-yl)-1H-imidazo[4,5-b]pyridine-3(2H)-yl)piperidin-1-yl)-3-oxopropanenitrile], the XRPD characterisation entry is “Form II/Hydrate*” in data set [1] (vial 1, water, 5 °C, slurry of Form I, II, III, 1,2-dimethoxyethane solvate and hydrate agitated one week, poor recovery hampered interpretation); “Form II/Form III/Hydrate” in data set [1] (vial 2, water, 25 °C, mixed-form slurry, one week); “Form II” in data set [1] (vial 3, water, 50 °C, mixed-form slurry, one week); “Form II” in data set [1] (vial 4, MEK, 5 °C, mixed-form slurry, one week); “Form II” in data set [1] (vial 5, MEK, 25 °C, mixed-form slurry, one week); “Form II” in data set [1] (vial 6, MEK, 50 °C, mixed-form slurry, one week). The XRPD characterisation result in data set [1] (vial 7, EtOAc, 5 °C, mixed-form slurry, one week) is “Form II/1,2-dimethoxyethane solvate”; in data set [1] (vial 8, EtOAc, 25 °C, mixed-form slurry, one week), “Form II/1,2-dimethoxyethane solvate”; in data set [1] (vial 9, EtOAc, 50 °C, mixed-form slurry, one week), “Form II”; in data set [1] (vial 10, IPA, 5 °C, mixed-form slurry, one week) it was “Form II”; in data set [1] (vial 11, IPA, 25 °C, mixed-form slurry, one week), “Form II/1,2-dimethoxyethane solvate”; in data set [1] (vial 12, IPA, 50 °C, mixed-form slurry, one week), “Form II”. In addition, in data set [2], the solubility in water result is “poor solubility”.

As to `Cn1c(=O)n([C@H]2CCCN(C(=O)CC#N)C2)c2nc(-c3cnn4ccccc34)ccc21` [Hydrate I, (S)-3-(3-(1-methyl-2-oxo-5-(pyrazolo[1,5-a]pyridine-3-yl)-1H-imidazo[4,5-b]pyridine-3(2H)-yl)piperidin-1-yl)-3-oxopropanenitrile], the “stability of the hydrate relative to anhydrous Form II” value in data set [1] (in organic solvents) is listed as “less stable than the anhydrous Form II”. Also, the “conversion of the hydrate in the slurry” value in data set [1] (water at 50 °C, not at 25 °C or 5 °C) is “complete conversion to Form II”.

`Cn1c(=O)n([C@H]2CCCN(C(=O)CC#N)C2)c2nc(-c3cnn4ccccc34)ccc21` [Form II, (S)-3-(3-(1-methyl-2-oxo-5-(pyrazolo[1,5-a]pyridine-yl)-1H-imidazo[45-b]pyridine-3(2H)-yl)piperidin-1-yl)-3-oxopropanenitrile]: the “thermodynamic stability among the three anhydrous forms” value in data set [1] (at all three temperatures evaluated (5, 25, 50 °C)) is given as “most thermodynamically stable”. The “thermodynamic stability compared to the other polymorphic forms or the solvates and hydrates” value in data set [1] (at temperatures up to 50 °C) is on record as “greater thermodynamic stability”. Further, the “thermodynamic stability compared to the Form 1 and Form III polymorphs” value in data set [1] (competitive slurrying experiments) is on record as “surprisingly advantageous thermodynamic stability”.

As to `Cn1c(=O)n([C@H]2CCCN(C(=O)CC#N)C2)c2nc(-c3cnn4ccccc34)ccc21` [Form I, (S)-3-(3-(1-methyl-2-oxo-5-(pyrazolo[1,5-a]pyridine-3-yl)-1H-imidazo[4,5-b]pyridine-3(2H)-yl)piperidin-1-yl)-3-oxopropanenitrile], in data set [1] (all vials, except one of the experiments in water), the “form visible in the isolated solids” value is “No Form I or Form III material was visible”.

For the origin of these results see patent US10508123B2, “Polymorphs” (Vectura Limited, priority 2015, dated 2019).
